# Values of other authors in patent US20140371717A1, “DRUG DELIVERY MEDICAL DEVICE” (Micell Technologies, Inc., priority 2011, published 2014).
# Columns and labels:
# FKBP12 = FKBP12 (Homo sapiens, UniProt P62942)
# [1] = value in μM
# FKBP12, sequence (P62942 whole entry, species assumed): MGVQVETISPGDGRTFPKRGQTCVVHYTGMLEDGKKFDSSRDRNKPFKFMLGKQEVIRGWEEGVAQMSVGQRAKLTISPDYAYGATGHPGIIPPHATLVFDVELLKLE
SMILES,FKBP12 binding (nM) (FKBP12),FKBP12 binding (FKBP12),Antiproliferative potency (nM) [1]
"CO[C@H]1C[C@@H]2CC[C@@H](C)[C@@](O)(O2)C(=O)C(=O)N2CCCC[C@H]2C(=O)O[C@H]([C@H](C)C[C@@H]2CC[C@@H](OC(=O)C(C)(CO)CO)[C@H](OC)C2)CC(=O)[C@H](C)/C=C(\C)[C@@H](O)[C@@H](OC)C(=O)[C@H](C)C[C@H](C)/C=C/C=C/C=C/1C [Temsirolimus, 42-[3-hydroxy-2-(hydroxymethyl)-2-methylpropanoate]rapamycin]",about the same as Sirolimus,,
C=CC[C@@H]1/C=C(\C)C[C@H](C)C[C@H](OC)[C@H]2O[C@@](O)(C(=O)C(=O)N3CCCC[C@H]3C(=O)O[C@H](/C(C)=C/[C@@H]3CC[C@@H](O)[C@H](OC)C3)[C@H](C)[C@@H](O)CC1=O)[C@H](C)C[C@@H]2OC [Tacrolimus],,0.2 to 0.4 nM,
CC[C@@H]1/C=C(\C)C[C@H](C)C[C@H](OC)[C@H]2O[C@@](O)(C(=O)C(=O)N3CCCC[C@H]3C(=O)O[C@H](/C(C)=C/[C@@H]3CC[C@H](Cl)[C@H](OC)C3)[C@H](C)[C@@H](O)CC1=O)[C@H](C)C[C@@H]2OC [Pimecrolimus],about 1.2 nM,,about 1 μM
"CO[C@H]1C[C@@H]2CC[C@@H](C)[C@@](O)(O2)C(=O)C(=O)N2CCCC[C@H]2C(=O)O[C@H]([C@H](C)C[C@@H]2CC[C@@H](OCCO)[C@H](OC)C2)CC(=O)[C@H](C)/C=C(\C)[C@@H](O)[C@@H](OC)C(=O)[C@H](C)C[C@H](C)/C=C/C=C/C=C/1C [Everolimus, 40-O-(2-Hydroxyethyl)rapamycin]",,1.8 to 2.6 nM,
CO[C@H]1C[C@@H]2CC[C@@H](C)[C@@](O)(O2)C(=O)C(=O)N2CCCC[C@H]2C(=O)O[C@H]([C@H](C)C[C@@H]2CC[C@H](n3cnnn3)[C@H](OC)C2)CC(=O)[C@H](C)/C=C(\C)[C@@H](O)[C@@H](OC)C(=O)[C@H](C)C[C@H](C)/C=C/C=C/C=C/1C [Zotarolimus],,2.0 to 3.2 nM,
